Measurements published in PMC11035696, “Prospective de novo drug design with deep interactome learning” (Nature Communications, 2024).
Several values for one entry are separate records, joined by “and”; a condition that tells them apart may be missing. Equal values may be shown once.

Columns and labels:
[1] = target: T1, retinoic acid receptor (RAR)α (Homo sapiens, UniProt P10276); assay: Nuclear receptor selectivity profiling, hybrid reporter gene assay, RARα; type: cell-based
T1 construct: RARα (pFA-CMV-hRARα-LBD[104], 1 μM tretinoin); expressed in transfected cells; host or cells: HEK293T
T1 sequence (P10276 183-417 limits assumed): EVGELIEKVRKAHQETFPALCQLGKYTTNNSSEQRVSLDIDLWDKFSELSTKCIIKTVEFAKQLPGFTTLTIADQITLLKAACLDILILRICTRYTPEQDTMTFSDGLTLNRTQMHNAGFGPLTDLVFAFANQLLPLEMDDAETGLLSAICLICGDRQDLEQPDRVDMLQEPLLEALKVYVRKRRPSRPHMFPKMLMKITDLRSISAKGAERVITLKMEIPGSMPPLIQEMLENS
Procedure: Compounds 1–3 were characterized in a hybrid reporter gene assay for their agoniztic effect on human nuclear receptors PPARα/γ/δ, RXRα, FXRα, RARα in HEK293T cells. Compound 1 was tested in an isothermal titration calorimetry (ITC) assay to measure direct binding affinity to the ligand-binding domain of PPARγ. ADME properties were measured in standardized assays at Roche.
PPAR activation was determined in uniform Gal4-hybrid reporter gene assays for the PPARα, PPARγ and PPARδ isoforms in HEK293T cells (German Collection of Microorganisms and Cell Culture GmbH, DSMZ) which were transiently transfected with pFR-Luc (Stratagene, La Jolla, CA, USA; reporter) and pRL-SV40 (Promega, Madison, WI, USA; internal control) and one pFA-CMV-hPPAR-LBD[97] clone, coding for the hinge region and ligand binding domain of the canonical isoform of human PPARα, PPARγ, PPARδ or respectively. Cells were cultured in Dulbecco’s modified Eagle’s medium (DMEM), high glucose supplemented with 10% fetal calf serum (FCS), sodium pyruvate (1 mM), penicillin (100 U ⋅ ml^-1), and streptomycin (100 μg ⋅ ml^-1) at 37 °C and 5% CO2 and seeded in 96-well plates (3 × 10^4 cells per well). After 24 h, medium was changed to Opti-MEM without supplements and cells were transiently transfected using Lipofectamine LTX reagent (Invitrogen) according to the manufacturer’s protocol. Five hours after transfection, cells were incubated with the test compounds in Opti-MEM supplemented with penicillin (100 U ⋅ ml^-1), streptomycin (100 μg ⋅ ml^-1) and 0.1% DMSO for 16 h before luciferase activity was measured using the Dual-Glo Luciferase Assay System (Promega) according to the manufacturer’s protocol on a Tecan Spark luminometer (Tecan Deutschland GmbH, Germany). Firefly luminescence was divided by Renilla luminescence and multiplied by 1000 resulting in relative light units (RLU) to normalize for transfection efficiency and cell growth. Fold activation was obtained by dividing the mean RLU of a test compound by the mean RLU of the untreated control. All samples were tested in at least three biologically independent experiments in duplicates. For dose-response curve fitting and calculation of EC50 values, the equation “[Agonist] versus response (variable slope—four parameters)” was used in GraphPad Prism (version 7.00, GraphPad Software, La Jolla, CA, USA) with fold activation data. The reference agonizts GW7647 (PPARα)[98],[99], pioglitazone (PPARγ)[100],[101] and L165,041 (PPARδ)[102],[103] were used to validate the assays and to monitor assay performance. Nuclear receptor selectivity profiling was performed with corresponding pFA-CMV-hNR-LBD clones and suitable reference agonizts on RARα (pFA-CMV-hRARα-LBD[104], 1 μM tretinoin), LXRα (pFA-CMV-hLXRα-LBD[104], 1 μM TO901317) and RXRα (pFA-CMV-h RXRα-LBD[105], 1 μM Bexarotene).

MONOAMINE OXIDASE-A = MONOAMINE OXIDASE-A (Homo sapiens, UniProt P21397); assay: Safety off-target panel, enzymatic; type: biochemical; details: single point
Description: (§1) Table S9-S12 list all targets, their species, inhibition (%) and assay type for the experiments conducted in the
(§2) off-targets. […] The numbers for mean
(§3) inhibition (%) represent single point measurements.
(§4) off-targets. […] The numbers for
(§5) mean inhibition (%) represent single point measurements.

HIV-1 PROTEASE = assay: Safety off-target panel, enzymatic; type: biochemical; details: 10 µM, single point
Description: as §1, §2, §3, §4, §5

[2] = target: ANGIOTENSIN CONVERTING ENZYME (Homo sapiens, UniProt P12821); assay: Safety off-target panel, enzymatic; type: biochemical; details: single point
ANGIOTENSIN CONVERTING ENZYME, sequence (P12821 30-1306): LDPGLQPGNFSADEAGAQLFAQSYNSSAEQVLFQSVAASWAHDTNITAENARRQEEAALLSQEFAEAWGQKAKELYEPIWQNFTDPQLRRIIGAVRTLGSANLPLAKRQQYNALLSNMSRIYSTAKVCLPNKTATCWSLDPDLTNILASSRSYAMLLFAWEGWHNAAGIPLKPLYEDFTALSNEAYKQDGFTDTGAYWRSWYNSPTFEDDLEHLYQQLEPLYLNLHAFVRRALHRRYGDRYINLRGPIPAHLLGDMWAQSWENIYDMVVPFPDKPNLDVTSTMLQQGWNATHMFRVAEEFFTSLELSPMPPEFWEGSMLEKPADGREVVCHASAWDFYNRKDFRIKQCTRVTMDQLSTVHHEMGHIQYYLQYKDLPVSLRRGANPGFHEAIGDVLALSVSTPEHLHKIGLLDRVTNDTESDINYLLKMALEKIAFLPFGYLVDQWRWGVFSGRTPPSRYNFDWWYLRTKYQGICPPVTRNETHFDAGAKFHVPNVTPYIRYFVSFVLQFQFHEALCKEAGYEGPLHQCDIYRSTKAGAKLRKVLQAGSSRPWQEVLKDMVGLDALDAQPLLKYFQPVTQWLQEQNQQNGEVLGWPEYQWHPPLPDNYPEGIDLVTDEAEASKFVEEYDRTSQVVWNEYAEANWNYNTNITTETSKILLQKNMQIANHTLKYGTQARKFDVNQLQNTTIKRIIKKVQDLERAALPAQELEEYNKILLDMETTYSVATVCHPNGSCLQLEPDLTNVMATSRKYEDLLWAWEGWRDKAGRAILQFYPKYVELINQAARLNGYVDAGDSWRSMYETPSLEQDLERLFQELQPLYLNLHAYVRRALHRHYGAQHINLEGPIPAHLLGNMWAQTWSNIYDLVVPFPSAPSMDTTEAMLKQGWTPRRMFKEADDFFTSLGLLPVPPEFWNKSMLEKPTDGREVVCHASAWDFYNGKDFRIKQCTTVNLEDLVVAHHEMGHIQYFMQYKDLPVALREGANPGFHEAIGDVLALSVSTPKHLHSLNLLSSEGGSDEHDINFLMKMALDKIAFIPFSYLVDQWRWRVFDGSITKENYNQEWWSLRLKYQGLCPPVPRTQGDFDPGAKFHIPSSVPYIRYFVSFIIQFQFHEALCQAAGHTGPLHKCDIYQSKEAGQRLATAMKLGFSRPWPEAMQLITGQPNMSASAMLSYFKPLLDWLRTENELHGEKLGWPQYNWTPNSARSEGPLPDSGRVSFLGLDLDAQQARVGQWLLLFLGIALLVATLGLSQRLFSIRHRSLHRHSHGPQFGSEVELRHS
Description: as §1, §2, §3, §4, §5

GSK-3A = GSK-3A (Homo sapiens, UniProt P49840); assay: Safety off-target panel, enzymatic; type: biochemical; details: single point
Description: as §1, §2, §3, §4, §5

ABL1 = ABL1 (Homo sapiens, UniProt P00519); assay: Safety off-target panel, enzymatic; type: biochemical; details: single point
ABL1, sequence (P00519 whole entry): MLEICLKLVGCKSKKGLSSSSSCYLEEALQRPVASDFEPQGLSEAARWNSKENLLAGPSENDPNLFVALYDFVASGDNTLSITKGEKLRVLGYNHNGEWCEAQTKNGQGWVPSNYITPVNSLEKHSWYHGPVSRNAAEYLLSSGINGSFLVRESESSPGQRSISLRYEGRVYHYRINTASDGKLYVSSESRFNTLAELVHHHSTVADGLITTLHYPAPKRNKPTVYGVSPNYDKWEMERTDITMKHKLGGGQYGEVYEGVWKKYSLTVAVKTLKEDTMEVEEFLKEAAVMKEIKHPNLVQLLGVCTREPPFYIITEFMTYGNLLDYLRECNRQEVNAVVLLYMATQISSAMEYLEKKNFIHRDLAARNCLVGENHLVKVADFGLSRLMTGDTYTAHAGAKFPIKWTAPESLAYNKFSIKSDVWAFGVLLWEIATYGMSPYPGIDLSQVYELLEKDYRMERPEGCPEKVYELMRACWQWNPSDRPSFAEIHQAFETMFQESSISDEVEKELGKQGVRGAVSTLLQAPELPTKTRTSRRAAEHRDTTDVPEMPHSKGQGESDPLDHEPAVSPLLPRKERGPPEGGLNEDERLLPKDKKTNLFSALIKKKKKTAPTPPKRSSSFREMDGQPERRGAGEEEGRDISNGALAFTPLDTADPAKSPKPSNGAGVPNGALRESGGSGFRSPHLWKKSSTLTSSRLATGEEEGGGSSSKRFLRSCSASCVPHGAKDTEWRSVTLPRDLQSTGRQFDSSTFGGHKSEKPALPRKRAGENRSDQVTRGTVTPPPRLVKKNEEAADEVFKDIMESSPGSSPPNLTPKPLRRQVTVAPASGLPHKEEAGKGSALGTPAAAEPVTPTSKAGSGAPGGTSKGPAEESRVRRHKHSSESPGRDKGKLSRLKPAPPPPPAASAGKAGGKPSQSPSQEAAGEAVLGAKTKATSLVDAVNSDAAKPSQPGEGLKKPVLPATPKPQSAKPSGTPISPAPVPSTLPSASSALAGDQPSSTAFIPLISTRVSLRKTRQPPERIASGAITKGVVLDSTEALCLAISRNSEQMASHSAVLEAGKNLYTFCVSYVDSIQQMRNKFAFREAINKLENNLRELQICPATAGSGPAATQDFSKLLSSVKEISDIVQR
Description: as §1, §2, §3, §4, §5

ACETYLCHOLINESTERASE = ACETYLCHOLINESTERASE (Homo sapiens, UniProt P22303); assay: Safety off-target panel, enzymatic; type: biochemical; details: single point
UniProt P22303, sequence (P22303 32-614): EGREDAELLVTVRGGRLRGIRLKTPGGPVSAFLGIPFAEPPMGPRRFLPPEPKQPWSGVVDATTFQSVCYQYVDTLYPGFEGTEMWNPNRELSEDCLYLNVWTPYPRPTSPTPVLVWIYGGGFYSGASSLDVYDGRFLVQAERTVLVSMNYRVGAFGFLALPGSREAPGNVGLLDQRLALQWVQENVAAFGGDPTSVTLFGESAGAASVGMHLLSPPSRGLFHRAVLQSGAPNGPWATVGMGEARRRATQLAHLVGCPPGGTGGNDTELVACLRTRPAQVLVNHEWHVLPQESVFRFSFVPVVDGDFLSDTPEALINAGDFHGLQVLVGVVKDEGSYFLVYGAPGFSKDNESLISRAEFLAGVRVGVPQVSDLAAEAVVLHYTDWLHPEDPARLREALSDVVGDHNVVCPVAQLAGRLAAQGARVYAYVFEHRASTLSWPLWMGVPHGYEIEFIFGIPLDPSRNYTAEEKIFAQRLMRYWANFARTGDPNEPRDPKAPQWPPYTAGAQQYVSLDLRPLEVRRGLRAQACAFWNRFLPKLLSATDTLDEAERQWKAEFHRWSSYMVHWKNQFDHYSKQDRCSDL
Description: as §1, §2, §3, §4, §5

PHOSPHODIESTERASE 4D2 = PHOSPHODIESTERASE 4D2 (Homo sapiens, UniProt Q08499); assay: Safety off-target panel, enzymatic; type: biochemical; details: single point
UniProt Q08499, sequence (Q08499 303-809 limits assumed): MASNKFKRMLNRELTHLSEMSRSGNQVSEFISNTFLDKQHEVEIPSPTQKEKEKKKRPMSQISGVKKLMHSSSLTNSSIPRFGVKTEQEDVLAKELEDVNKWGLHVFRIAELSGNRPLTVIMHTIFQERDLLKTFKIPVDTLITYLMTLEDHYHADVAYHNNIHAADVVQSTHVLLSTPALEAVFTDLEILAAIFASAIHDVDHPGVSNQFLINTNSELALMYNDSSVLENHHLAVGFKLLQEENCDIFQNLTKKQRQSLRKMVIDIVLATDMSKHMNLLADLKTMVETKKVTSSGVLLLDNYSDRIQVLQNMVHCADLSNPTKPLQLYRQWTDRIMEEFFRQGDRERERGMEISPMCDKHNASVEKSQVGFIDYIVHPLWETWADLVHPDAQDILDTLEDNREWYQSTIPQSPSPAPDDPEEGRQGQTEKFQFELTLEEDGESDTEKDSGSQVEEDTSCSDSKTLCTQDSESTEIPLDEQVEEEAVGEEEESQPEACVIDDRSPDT
Description: as §1, §2, §3, §4, §5

CDK2 = CDK2 (Homo sapiens, UniProt P24941); assay: Safety off-target panel, enzymatic; type: biochemical; details: single point
Description: as §1, §2, §3, §4, §5

CYCLO OXYGENASE 2 = CYCLO OXYGENASE 2 (Homo sapiens, UniProt P35354); assay: Safety off-target panel, enzymatic; type: biochemical; details: single point
Description: as §1, §2, §3, §4, §5

ZAP70 = ZAP70 (Homo sapiens, UniProt P43403); assay: Safety off-target panel, enzymatic; type: biochemical; details: single point
Description: as §1, §2, §3, §4, §5

PHOSPHODIESTERASE 3B = PHOSPHODIESTERASE 3B (Homo sapiens, UniProt Q13370); assay: Safety off-target panel, enzymatic; type: biochemical; details: single point
UniProt Q13370, sequence (Q13370 whole entry): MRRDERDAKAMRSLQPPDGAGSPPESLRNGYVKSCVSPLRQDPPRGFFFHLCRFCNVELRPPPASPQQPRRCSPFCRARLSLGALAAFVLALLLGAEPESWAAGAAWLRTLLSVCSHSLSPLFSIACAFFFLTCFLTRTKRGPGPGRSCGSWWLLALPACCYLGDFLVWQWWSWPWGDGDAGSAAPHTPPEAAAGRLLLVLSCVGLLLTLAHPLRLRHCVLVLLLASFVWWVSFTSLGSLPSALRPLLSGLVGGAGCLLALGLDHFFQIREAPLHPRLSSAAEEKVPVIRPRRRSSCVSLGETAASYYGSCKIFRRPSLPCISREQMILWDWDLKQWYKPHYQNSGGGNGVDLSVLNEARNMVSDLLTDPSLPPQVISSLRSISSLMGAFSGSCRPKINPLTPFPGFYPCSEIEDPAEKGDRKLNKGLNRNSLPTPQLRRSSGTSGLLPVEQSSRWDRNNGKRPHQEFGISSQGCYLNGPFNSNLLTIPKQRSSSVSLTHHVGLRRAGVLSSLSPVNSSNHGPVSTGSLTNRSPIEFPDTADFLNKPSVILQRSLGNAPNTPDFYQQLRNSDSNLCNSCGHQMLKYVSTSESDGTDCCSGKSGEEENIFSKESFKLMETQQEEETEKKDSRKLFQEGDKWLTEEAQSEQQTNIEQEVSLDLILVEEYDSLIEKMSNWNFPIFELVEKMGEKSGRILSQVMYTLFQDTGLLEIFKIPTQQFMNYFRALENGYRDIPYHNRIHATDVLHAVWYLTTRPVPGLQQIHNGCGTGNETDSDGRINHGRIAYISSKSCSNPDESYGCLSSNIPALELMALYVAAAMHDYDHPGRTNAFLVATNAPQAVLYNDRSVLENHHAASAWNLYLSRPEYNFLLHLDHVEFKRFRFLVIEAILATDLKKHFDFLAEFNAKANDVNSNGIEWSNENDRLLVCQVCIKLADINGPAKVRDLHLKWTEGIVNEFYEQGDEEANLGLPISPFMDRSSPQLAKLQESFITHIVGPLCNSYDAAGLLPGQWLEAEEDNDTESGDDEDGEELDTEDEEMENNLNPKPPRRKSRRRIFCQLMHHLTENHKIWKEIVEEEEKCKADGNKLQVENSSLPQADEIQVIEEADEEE
Description: as §1, §2, §3, §4, §5

GSK-3B = GSK-3B (Homo sapiens, UniProt P49841); assay: Safety off-target panel, enzymatic; type: biochemical; details: single point
GSK-3B, sequence (P49841 whole entry): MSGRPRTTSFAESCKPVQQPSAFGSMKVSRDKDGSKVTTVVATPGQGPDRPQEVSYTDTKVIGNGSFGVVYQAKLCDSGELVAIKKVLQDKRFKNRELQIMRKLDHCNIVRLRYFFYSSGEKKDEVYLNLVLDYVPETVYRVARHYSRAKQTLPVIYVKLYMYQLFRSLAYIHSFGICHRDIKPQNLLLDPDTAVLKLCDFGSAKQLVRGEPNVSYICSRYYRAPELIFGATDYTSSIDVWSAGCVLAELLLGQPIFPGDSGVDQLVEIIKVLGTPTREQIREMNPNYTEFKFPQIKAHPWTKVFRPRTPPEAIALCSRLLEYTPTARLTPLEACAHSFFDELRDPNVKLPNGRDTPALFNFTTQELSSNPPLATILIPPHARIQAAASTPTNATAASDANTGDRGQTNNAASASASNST
Description: as §1, §2, §3, §4, §5

PCP RECEPTOR = assay: Safety off-target panel, binding; set-up: species or system Rat; details: 10 µM, single point
Description: as §1, §2, §3, §4, §5

[3] = test system: GABA-A (BENZODIAZAPINE BINDING SITE); assay: Safety off-target panel, binding; set-up: species or system Rat; details: 10 µM, single point
Description: as §1, §2, §3, §4, §5

[4] = test system: CA2+ CHANNEL (DILTIAZEM SITE); assay: Safety off-target panel, binding; set-up: species or system Rat; details: 10 µM, single point
Description: as §1, §2, §3, §4, §5

COc1ccc(Oc2ccc3ncn(CCOc4ccc(CCC(=O)O)cc4)c3c2)cc1 [Compound 2]
RARα reporter activation, replicate values (DMSO ctrl = 1,000) ([1]; 3 µM): 1,038 and 0,832 and 1,499
RARα reporter activation, replicate values (DMSO ctrl = 1,000) ([1]; 10 µM): 1,361 and 1,194 and 1,664
inhibition at 10 µM (MONOAMINE OXIDASE-A): 4.4%
Mean inhibition (%) (HIV-1 PROTEASE): 0.2%
inhibition at 10 µM [2]: -44.3%
inhibition at 10 µM (GSK-3A): -8.8%
inhibition at 10 µM (ABL1): -11%
inhibition at 10 µM (ACETYLCHOLINESTERASE): 2%
inhibition at 10 µM (PHOSPHODIESTERASE 4D2): -3.8%
inhibition at 10 µM (CDK2): 45.9%
inhibition at 10 µM (CYCLO OXYGENASE 2): -10.4%
inhibition at 10 µM (ZAP70): 3.5%
inhibition at 10 µM (PHOSPHODIESTERASE 3B): -26.7%
inhibition at 10 µM (GSK-3B): -20.3%
Mean inhibition (%) (PCP RECEPTOR): 11.8%
Mean inhibition (%) [3]: 57.8%
Mean inhibition (%) [4]: -11.7%

Cc1nnc(-c2ccc(OCCCOc3ccc(CCC(=O)O)c(F)c3)c(F)c2)s1 [Compound 1]
RARα reporter activation, replicate values (DMSO ctrl = 1,000) ([1]; 3 µM): 0,775 and 0,698 and 0,825
RARα reporter activation, replicate values (DMSO ctrl = 1,000) ([1]; 10 µM): 1,145 and 0,633 and 0,940
inhibition at 10 µM (MONOAMINE OXIDASE-A): 13.3%
Mean inhibition (%) (HIV-1 PROTEASE): 8.2%
inhibition at 10 µM [2]: -11.6%
inhibition at 10 µM (GSK-3A): 39.6%
inhibition at 10 µM (ABL1): 4.4%
inhibition at 10 µM (ACETYLCHOLINESTERASE): 0%
inhibition at 10 µM (PHOSPHODIESTERASE 4D2): 3.1%
inhibition at 10 µM (CDK2): 3.6%
inhibition at 10 µM (CYCLO OXYGENASE 2): -21.7%
inhibition at 10 µM (ZAP70): -0.3%
inhibition at 10 µM (PHOSPHODIESTERASE 3B): 1.4%
inhibition at 10 µM (GSK-3B): 20.2%
Mean inhibition (%) (PCP RECEPTOR): -12.0%
Mean inhibition (%) [3]: 12.5%
Mean inhibition (%) [4]: -4.7%
